Broadly, the IC50 is the concentration that gives 50% inhibition.

The values below come from patent US12162858B2, “Quinoline derivatives as inhibitors of AXL/MER RTK and CSF1R” (QURIENT CO., LTD., priority 2018, dated 2024).

In one experiment the test system is CSF1R (M-NFS-60 cells). Briefly: Cell Titer-Glo viability assay using M-NFS-60 cells. Type of experiment: cell-based. Particulars: Mus musculus, read-out: Cellular CSF1R activity by M-NFS-60 viability assay (IC50 activity range). Put shortly:
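M-NFS-60 cells grown with 62 ng/ml recombinant human M-CSF, seeded at 2×10^5 cells/well and incubated at 37 °C/5% CO2. Compounds given as 3-fold serial dilutions (10 doses); viability read by CellTiter-Glo luminescence, sigmoidal dose-response fit.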

A further experiment addresses T1, Axl (Homo sapiens, UniProt P30530).
T1 sequence (P30530 26-894): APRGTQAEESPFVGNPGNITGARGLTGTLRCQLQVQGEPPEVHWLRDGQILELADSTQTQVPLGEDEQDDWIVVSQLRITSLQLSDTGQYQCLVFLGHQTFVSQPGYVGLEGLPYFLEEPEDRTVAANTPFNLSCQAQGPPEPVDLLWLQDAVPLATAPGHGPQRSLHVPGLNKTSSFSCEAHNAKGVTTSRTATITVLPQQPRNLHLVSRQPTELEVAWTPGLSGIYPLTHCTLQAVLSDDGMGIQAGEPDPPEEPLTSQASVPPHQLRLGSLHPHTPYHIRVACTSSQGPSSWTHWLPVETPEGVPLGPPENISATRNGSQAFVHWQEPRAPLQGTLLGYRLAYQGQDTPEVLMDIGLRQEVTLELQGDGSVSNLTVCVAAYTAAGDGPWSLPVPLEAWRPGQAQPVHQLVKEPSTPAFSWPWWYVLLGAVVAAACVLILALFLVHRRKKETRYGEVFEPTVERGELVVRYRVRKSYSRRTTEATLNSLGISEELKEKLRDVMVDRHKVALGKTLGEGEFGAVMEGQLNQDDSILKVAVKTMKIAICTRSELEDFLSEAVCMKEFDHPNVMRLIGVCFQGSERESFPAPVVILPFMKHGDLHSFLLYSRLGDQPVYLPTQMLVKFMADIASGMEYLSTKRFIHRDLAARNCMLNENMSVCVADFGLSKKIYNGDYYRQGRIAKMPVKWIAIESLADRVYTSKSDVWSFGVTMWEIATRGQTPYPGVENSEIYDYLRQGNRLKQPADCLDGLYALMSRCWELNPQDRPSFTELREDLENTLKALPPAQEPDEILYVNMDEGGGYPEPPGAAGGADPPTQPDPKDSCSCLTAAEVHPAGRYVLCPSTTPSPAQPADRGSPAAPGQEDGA
The experiment in a line: Cellular Axl inhibition ELISA (p-Axl, Gas6-induced) using H1299 cells. Type of experiment: cell-based. More on the design: especially H1299 cell endogenously expresses Axl; endogenous in cells; host or cells: H1299. Particulars: read-out: Cellular Axl activity by H1299 Elisa (IC50). Summed up: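 H1299 cells, seeded overnight, exposed 24 h at 37 °C to 10-point 3-fold compound dilutions, then stimulated with 200 ng/ml human Gas6 (final) for 1 h. Lysates assayed for p-Axl by sandwich ELISA with HRP/TMB, absorbance 450 nm; IC50 by sigmoidal dose-response fit.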
A general note: In an ELISA, binding on a coated surface is turned into a signal by an enzyme label.

With `COc1cc2nccc(Oc3ccc(NC(=O)c4nn(C5CCOC5)cc4OCC(F)(F)F)c(F)c3)c2cc1OC` (centres unmarked) [Compound 77], the IC50 in the experiment on CSF1R (M-NFS-60 cells) was 1000 to 10000 nM; on Axl, less than 500 nM.

For `COCCn1cc(OCC(F)(F)F)c(C(=O)Nc2ccc(Oc3ccnc4cc(OC)c(OC)cc34)c(C)c2)n1` [Compound 84], the results for the IC50 in the experiment with CSF1R (M-NFS-60 cells) and at Axl were 1000 to 10000 nM and less than 500 nM, respectively.

With `COc1cc2nccc(Oc3ccc(NC(=O)c4nn(C5CC5)cc4OCC(F)(F)F)nc3)c2cc1OC` [Compound 5], the 50% inhibitory concentration (IC50) with CSF1R (M-NFS-60 cells) was less than 1000 nM; on Axl it was less than 500 nM.

`COc1cc2nccc(Oc3ccc(NC(=O)c4nn(C5CCN(C)C5)cc4OCC(F)(F)F)nc3)c2cc1OC` (centres unmarked) [Compound 91]: the 50% inhibitory concentration (IC50) in the experiment with CSF1R (M-NFS-60 cells) was less than 1000 nM; at Axl it was less than 500 nM.

As for `COc1cc2nccc(Oc3ccc(NC(=O)c4nn(CC(C)O)cc4OCC(F)(F)F)cc3F)c2cc1OC` (centres unmarked) [Compound 80], the figures for the IC50 in the experiment with CSF1R (M-NFS-60 cells) and on Axl were 1000 to 10000 nM and less than 500 nM, respectively.

In the case of `COc1cc2nccc(Oc3ccc(NC(=O)c4nn(CCC5CCCC5)cc4OCC(F)(F)F)nc3)c2cc1OC` [Compound 93], the half-inhibitory concentration (IC50) in the experiment on CSF1R (M-NFS-60 cells) was less than 1000 nM; on Axl, less than 500 nM.

As to `COc1cc2nccc(Oc3ccc(NC(=O)c4nn(C5CCNC5)cc4OCC(F)(F)F)cc3)c2cc1OC` (centres unmarked) [Compound 86], the half-inhibitory concentration (IC50) is 1000 to 10000 nM with CSF1R (M-NFS-60 cells) and less than 500 nM at Axl.

With `COc1cc2nccc(Oc3ccc(NC(=O)c4nn(C5CCNC5)cc4OCC(F)(F)F)cc3F)c2cc1OC` (centres unmarked) [Compound 78], the IC50 in the experiment with CSF1R (M-NFS-60 cells) is 1000 to 10000 nM; at Axl, less than 500 nM.

In the case of `COc1cc2nccc(Oc3ccc(NC(=O)c4nn(CC5COC5)cc4OCC(F)(F)F)c(F)c3)c2cc1OC` [Compound 95], the IC50 is 1000 to 10000 nM with CSF1R (M-NFS-60 cells) and less than 500 nM on Axl.

As for `COc1cc2nccc(Oc3ccc(NC(=O)c4nn(CCN)cc4OCC(F)(F)F)cc3C)c2cc1OC` [Compound 82], the IC50 in the experiment on CSF1R (M-NFS-60 cells) is 1000 to 10000 nM; at Axl it was not below 1000 nM.

`COc1cc2nccc(Oc3ccc(NC(=O)c4nn(CCN)cc4OCC(F)(F)F)cc3)c2cc1OC` [Compound 88]: the 50% inhibitory concentration (IC50) lay within 1000 to 10000 nM in the experiment on CSF1R (M-NFS-60 cells) and 500 to 1000 nM at Axl.

Consider `COc1cc2nccc(Oc3ccc(NC(=O)c4nn(CC(C)O)cc4OCC(F)(F)F)cc3C)c2cc1OC` (centres unmarked) [Compound 83], for which the concentration for half-maximal inhibition (IC50) with CSF1R (M-NFS-60 cells) is 1000 to 10000 nM; on Axl, less than 500 nM.

Regarding `COc1cc2nccc(Oc3ccc(NC(=O)c4nn(CCN)cc4OCC(F)(F)F)cc3F)c2cc1OC` [Compound 79], the IC50 in the experiment on CSF1R (M-NFS-60 cells) was 1000 to 10000 nM; on Axl, less than 500 nM.

Regarding `COc1cc2nccc(Oc3ccc(NC(=O)c4nn(CC(C)O)cc4OCC(F)(F)F)cc3)c2cc1OC` (centres unmarked) [Compound 89], the IC50 in the experiment on CSF1R (M-NFS-60 cells) was 1000 to 10000 nM; at Axl, less than 500 nM.

Regarding `COc1cc2nccc(Oc3ccc(NC(=O)c4nn(CC(C)C)cc4OCC(F)(F)F)cc3)c2cc1OC` [Compound 87], the IC50 with CSF1R (M-NFS-60 cells) was 1000 to 10000 nM; on Axl it was less than 500 nM.

As to `COc1cc2nccc(Oc3ccc(NC(=O)c4nn(C5CCN(C)C5)cc4OCC(F)(F)F)c(F)c3)c2cc1OC` (centres unmarked) [Compound 94], the results for the IC50 in the experiment with CSF1R (M-NFS-60 cells) and at Axl were 1000 to 10000 nM and less than 500 nM, respectively.

Turning to `COc1cc2nccc(Oc3ccc(NC(=O)c4nn(C5CCOC5)cc4OCC(F)(F)F)cc3C)c2cc1OC` (centres unmarked) [Compound 85], the IC50 was 1000 to 10000 nM in the experiment on CSF1R (M-NFS-60 cells) and less than 500 nM at Axl.

As for `COc1cc2nccc(Oc3ccc(NC(=O)c4nn(C5CCOCC5)cc4OCC(F)(F)F)nc3)c2cc1OC` [Compound 90], the IC50 is less than 1000 nM with CSF1R (M-NFS-60 cells) and less than 500 nM at Axl.

Turning to `COc1cc2nccc(Oc3ccc(NC(=O)c4nn(C5CCNC5)cc4OCC(F)(F)F)cc3C)c2cc1OC` (centres unmarked) [Compound 81], the concentration for half-maximal inhibition (IC50) in the experiment on CSF1R (M-NFS-60 cells) is 1000 to 10000 nM; at Axl, not below 1000 nM.
